Results taken from US20190016697A1, “CONFIGURATIONAL STEREOISOMER OF DIFETHIALONE, COMPOSITION AND RODENTICIDE BAIT COMPRISING SAME, AND METHOD FOR CONTROLLING TARGET RODENT PESTS” (priority 2015, published 2019).
Read-outs that look alike come from different tables or passages of the source.

Assay type: in vivo, Rattus norvegicus
Conditions: about 3.4 mg difethialone per kg per os (homo/hetero 4/6, each racemic), mean of six male and female rats, daily vitamin K1
Experimental: C. Extraction of Difethialone from the Liver of Rats Treated with Difethialone for the Purpose of Analysis of the Various Enantiomers of Difethialone
About 0.525 g (±0.025 g) of rat liver is weighed out accurately and placed in a 50 mL polypropylene tube. 10 mL of acetone are added and the suspension is homogenized using an Ultra-Turrax® homogenizer/disperser for a time of about 30 seconds. The homogenizer/disperser shaft is rinsed with hot water and then twice with 20 mL of acetone in a polypropylene tube. The homogenate is centrifuged for 5 minutes at a centrifugation speed of 3000 rpm (revolutions per minute). The supernatant is collected and transferred into a test tube. The sample is subjected to evaporation under a stream of nitrogen (N2) at a temperature of 40° C. so as to form a dry extract.
1 mL of acetonitrile is added to the tube containing the dry extract so as to dissolve it. The acetonitrile solution is washed twice successively with 1 mL of hexane. The lipid-free extract is dried under a stream of nitrogen (N2) at a temperature of 40° C. and is then taken up in 0.5 mL of methanol and dissolved by vortex stirring. 0.5 mL of ultra-pure (Milli-Q) water is then added. The sample is vortex-homogenized.
1 mL of dichloromethane (CH2Cl2), then 1 mL of methanol (CH3OH), then 1 mL of ultra-pure (Milli-Q) water are passed through an Oasis HLB 1 cc cartridge (WAT094225, Waters). The lipid-free liver extract (1 mL MeOH/Milli-Q H2O) containing difethialone is then loaded onto the top of the preconditioned cartridge. The liver extract penetrates through the cartridge by gravity on contact with the solid phase of the cartridge. 1 mL of washing solution formed from methanol (CH3OH) and ultra-pure water (H2O) in a 90/10 volume proportion is loaded onto the top of the cartridge. The cartridge is dried by suction under vacuum connected to the bottom of the cartridge. 1 mL of eluting solution formed from dichloromethane (CH2Cl2) and methanol (CH3OH) in a 90/10 volume proportion is then loaded onto the top of the cartridge and an eluate comprising difethialone is collected at the bottom of the cartridge. The solvent of the eluate is evaporated off under a stream of nitrogen (N2) at a temperature of 40° C. The sample is taken up in 0.5 mL of acetonitrile (NC-CH3) and the acetonitrile solution containing difethialone is filtered through a 0.2 μm filter.
The acetonitrile solution containing difethialone is analysed by high-pressure liquid chromatography on a LUX® Cellulose-3 chiral column (150×2 mm, particle size of 3 μm) (Phenomenex, Le Pecq, France) as described in point A2) above. The retention time value (t1) of the laevorotatory enantiomer of said homo-stereoisomer of difethialone according to the invention is between 7.8 minutes and 8.4 minutes (the maximum value of the peak corresponding to the […] enantiomer of said homo-stereoisomer being about 8.1 minutes, as described in FIG. 1), depending on the operating conditions, especially depending on the column temperature conditions. The retention time value (t4) of the dextrorotatory enantiomer of said homo-stereoisomer is between 13.3 minutes and 15.1 minutes (the maximum value of the peak corresponding to the […] enantiomer of said homo-stereoisomer being about 14.4 minutes), depending on the operating conditions, especially depending on the column temperature conditions. The retention time value (t3) of the dextrorotatory enantiomer of said hetero-stereoisomer of difethialone is between 11.2 minutes and 12.3 minutes (the maximum value of the peak corresponding to the dextrorotatory enantiomer of said hetero-stereoisomer being about 11.7 minutes), depending on the operating conditions, especially depending on the column temperature conditions. […]

| Compound | Hepatic content (4 hours after tube-feeding) | Hepatic content (9 hours after tube-feeding) | Hepatic content (24 hours after tube-feeding) | Hepatic content (48 hours after tube-feeding) | Hepatic content (120 hours after tube-feeding) | Hepatic content (168 hours after tube-feeding) | Hepatic content (216 hours after tube-feeding) |
| --- | --- | --- | --- | --- | --- | --- | --- |
| O=c1sc2ccccc2c(O)c1C1CC(c2ccc(-c3ccc(Br)cc3)cc2)Cc2ccccc21 (centres unmarked) [DFN-Hetero-laevo] | 5380.5 ng/g | 5869.5 ng/g | 3613.5 ng/g | 2804 ng/g | 1211 ng/g | 392.5 ng/g | 545 ng/g |
| O=c1sc2ccccc2c(O)c1C1CC(c2ccc(-c3ccc(Br)cc3)cc2)Cc2ccccc21 (centres unmarked) [DFN-Hetero-dextro] | 10589.5 ng/g | 12155.5 ng/g | 8102 ng/g | 7974.5 ng/g | 5431.5 ng/g | 3011 ng/g | 4030.5 ng/g |
